In patent US20110166173A1, “3,5-DISUBSTUTUTED 1H-PYRROLO [2,3-B] PYRIDINES AS JNK INHIBITORS” (Eisai Co., Ltd., priority 2004, published 2011) one finds IC50 data, which are given here for five compounds.

The target of this experiment is JNK3 (Homo sapiens, UniProt P53779). Kind of experiment: JNK3 SPA assay (phosphorylation of GST-c-Jun). It is filed as biochemical. Conditions: Scintillation proximity assay, GST-c-Jun substrate, 3.33 μM ATP, 30 minutes at room temperature. The method, then:
JNK1, JNK2, JNK3—SPA Assay • 1. Compound is dissolved in DMSO to a convenient concentration and this is diluted in 10% DMSO to a five times concentrate of the desired starting concentration (frequently 1:100). • 2. 10 μl of 500 mM EDTA is added to alternative wells of the Opti-plate row, which will receive kinase reaction plus DMSO. This creates the negative control. • 3. For the JNK2 and JNK3 assay, compounds are prepared in six 2-fold dilutions with water and each concentration is tested in duplicate. For the JNK1 assay compounds are prepared in four 5-fold dilutions with water which are tested in triplicate. Controls are treated identically. • 4. 20 μl per well of each compound concentration is transferred to an Opti-plate, in duplicate. • 5. 30 μl (JNK2/3 SPA) or 50 μl (JNK1 SPA) of substrate solution (25 mM HEPES pH 7.5, 10 mM magnesium acetate with 3.33 μM ATP (JNK2/3) or 2 μM ATP (JNK1), approximately 7.5 kBq [γ-^33P] ATP, GST-c-Jun, in water) is added to each well. • 6. 50 μl (JNK2/3 SPA) or 30 μl (JNK1 SPA) of kinase solution (JNK in 25 mM HEPES pH 7.5, 10 mM Mg Acetate) is added to each well.
• 7. The plate is incubated for 30 minutes at room temperature. • 8. 100 μl of bead/stop solution is added to each well (5 mg/ml glutathione-PVT-SPA beads, 40 mM ATP in PBS). • 9. Plates are sealed and incubated for 30 minutes at room temperature, centrifuged for 10 minutes at 2500 g and counted. • 10. The IC50 values are calculated as the concentration of the compound being tested at which the phosphorylation of c-Jun is decreased to 50% of the control value.

SMILES strings stand for the structures.

Sequence of JNK3 (P53779 whole entry): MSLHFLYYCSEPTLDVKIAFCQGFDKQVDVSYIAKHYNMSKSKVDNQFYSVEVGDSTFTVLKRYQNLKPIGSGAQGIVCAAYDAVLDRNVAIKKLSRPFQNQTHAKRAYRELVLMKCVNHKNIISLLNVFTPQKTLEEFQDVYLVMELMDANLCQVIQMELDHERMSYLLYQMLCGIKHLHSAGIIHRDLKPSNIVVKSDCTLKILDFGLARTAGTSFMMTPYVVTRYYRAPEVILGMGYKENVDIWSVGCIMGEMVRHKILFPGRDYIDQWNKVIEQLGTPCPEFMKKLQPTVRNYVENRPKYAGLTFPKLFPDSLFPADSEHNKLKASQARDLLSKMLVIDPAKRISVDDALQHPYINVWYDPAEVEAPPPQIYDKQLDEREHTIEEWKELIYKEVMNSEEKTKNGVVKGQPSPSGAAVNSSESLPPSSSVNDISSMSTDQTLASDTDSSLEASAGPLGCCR

The IC50 is the midpoint of a concentration-inhibition curve. A low value points to higher potency. `O=C(c1cnc2[nH]cc(-c3ccoc3)c2c1)N1CCCC1` registered an IC50 of under 500 nM. For `O=C(c1cnc2[nH]cc(-c3ccoc3)c2c1)N1CCc2ccccc2C1` the value was under 500 nM.

Compound `O=C(Nc1ccc2[nH]ccc2c1)c1cnc2[nH]cc(-c3ccoc3)c2c1` registered an IC50 of under 1000 nM. In the case of `CN(C)c1ccc(C(=O)c2cnc3[nH]cc(-c4cnn(C)c4)c3c2)cc1` it was under 500 nM; in that of `O=C(NCCc1c[nH]c2ccccc12)c1cnc2[nH]cc(-c3ccoc3)c2c1`, under 500 nM.
